pIC50: −log10 of the molar value.
System: 966289-007-R4-J1-PDC complex spheroid viability
Experiment: Anticancer human tumor 966289-007-R4-J1-PDC patient-derived pancreatic adenocarcinoma cell line growth inhibition [RAS]
Details: for pIC50: curve of first compound; for viability, T/C: stronger effect = lower value; active = viability on the fitted dose curve at most 10% of control; inactive = the rest
Excerpt: RAS pathway inhibitors in Combinations in Complex Spheroids
A high-throughput screen of multi-cell type tumor spheroids was designed to identify active combinations of RAS pathway inhibitors and targeted small molecules. Complex spheroids include a stromal component modeled by human endothelial cells (HUVEC) and fibroblasts modeled by human mesenchymal stem cells (MSCs). The concentration ranges selected for each drug and investigational agent were based upon clinically achievable concentrations if the clinical Cmax of the agent was known.
Compounds. The drugs and investigational agents: abemaciclib (NSC768073), cobimetinib (NSC768068), divarasib (GDC6063, NSC841802), docetaxel (NSC628503), GDC-1971 (RLY-1971, NSC841576), gemcitabine (NSC613327), inavolisib (NSC800729), ipatasertib (NSC767898), KB-0742 (NSC834161), MRTX-1133 (NSC836407), osimertinib (NSC779217), RMC-4630 (NSC839698), RMC-6236 (NSC851965), RMC-6291 (NSC852671), Ro-3306 (NSC812927), sapanisertib (NSC764658), SN-38 (NSC673596), staurosporine (NSC755774), SY5609 (NSC837396), and tovorafenib (DAY101, NSC766906), were obtained from the National Cancer Institute (NCI) Developmental Therapeutics Program Chemical Repository. The FDA-approved anticancer drug set is available from the NCI Developmental Therapeutics Program. […] The stock solutions were prepared in dimethyl sulfoxide (DMSO, Sigma-Aldrich, St. Louis, MO, cat. D2650) at 800-fold the tested concentration and stored at -70 degrees C prior to their use. All drugs and investigational agents were tested over a range starting from a high concentration at or near the clinical Cmax and decreasing in half-log increments. If the clinical Cmax for an agent had not been determined, the highest concentration tested was 10 microM.
Cell Culture. All cells were maintained in an incubator at 37 degrees C and 5% CO2 with 95% humidity. The PDC lines were cultured according to standard operating procedures established by the NCI PDMR. All PDCs were thawed and cultured in Matrigel-coated flasks prepared with a working solution of 1X Ham's F-12 nutrient mix, without supplementation (Invitrogen, Waltham, MA, cat. 11765054), 100 U/mL penicillin-streptomycin (Invitrogen, cat. 15140122), and 2.5% Matrigel (Corning Inc., Corning, NY, cat. 354248) for the first three passages. The 362531-283-R-J2-PDC and 782815-120-R-J1-PDC lines were cultured in 6C/Colon 1B media, which includes advanced DMEM/F-12 (Thermo Fisher Scientific, cat. 12634028), 10 mM HEPES (Thermo Fisher Scientific, cat. 15630080), 1X GlutaMAX supplement (Thermo Fisher Scientific, cat. 35050061), 0.1 mg/mL primocin (InvivoGen, San Diego, CA, cat. ant-pm-2), 10% defined fetal bovine serum, heat inactivated (HyClone Laboratories Inc., Logan, UT, cat. SH30070.03HI), 50% L-WRN conditioned media (ATCC, cat. CRL-3276), 1.25 mM N-Acetyl-L-cysteine (Sigma-Aldrich, cat. A9165), 10 mM nicotinamide (Sigma-Aldrich, cat. N0636), 1X B-27 supplement (Thermo Fisher Scientific, cat. 17504044), 1X N-2 supplement (Thermo Fisher Scientific, cat. 17502048), 50 ng/mL human EGF (Thermo Fisher Scientific, cat. PHG0311), and 10 microM Y-27632 dihydrochloride (Tocris Bioscience, cat. 1254). The K12877-001-R-J1-PDC line was cultured in 6I media, which includes all 6C/Colon 1B media plus 10 ng/mL human FGF-10 (PeproTech, cat. 100-26), 1 ng/mL human FGF-2 (PeproTech, cat. 100-18B), 1 µM prostaglandin E2 (Tocris Bioscience, cat. 2296), […] hydrocortisone (Sigma-Aldrich, cat. H4001), and […] bovine insulin (Sigma-Aldrich, cat. I6634). The K86415-001-R-J1-PDC line was cultured in 6D media, which includes all 6C/Colon 1B media components minus the L-WRN conditioned media. The 485176-168-R4-J1-PDC was cultured in PANC media, which includes all 6C/Colon 1B media plus 100 ng/mL human FGF-10 (PeproTech, cat. 100-26), 500 nM SB-431542 (Selleckchem, cat. S1067), and 10 nM gastrin (Tocris Bioscience, cat. 3006). […]
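Note: spheroids exposed to agents for one week before readout.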
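Throughout, for viability, T/C: percent viability relative to DMSO vehicle control wells as 100%.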

CC1(O)CCCC1n1c(=O)c(C(F)F)cc2cnc(NC3CCN(S(C)(=O)=O)CC3)nc21 (configuration not stated) + C#Cc1c(F)ccc2cc(O)cc(-c3ncc4c(N5CC6CCC(C5)N6)nc(OCC56CCCN5CC(F)C6)nc4c3F)c12
6.66: pIC50 (second compound 1 µM) | pIC50 (second compound 3.16 µM)
inactive: viability, T/C (second compound 0.0316 µM, first compound 0.0316 µM) 138% | viability, T/C (second compound 0.0316 µM, first compound 0.1 µM) 57% | viability, T/C (second compound 0.0316 µM, first compound 0.316 µM) 28.4% | viability, T/C (second compound 0.0316 µM, first compound 1 µM) 33.5% | viability, T/C (second compound 0.0316 µM, first compound 3.16 µM) 32.1% | viability, T/C (second compound 0.0316 µM, first compound 10 µM) 5.74% | viability, T/C (second compound 0.1 µM, first compound 0.0316 µM) 124% | viability, T/C (second compound 0.1 µM, first compound 0.1 µM) 70.9% | viability, T/C (second compound 0.1 µM, first compound 0.316 µM) 26.7% | viability, T/C (second compound 0.1 µM, first compound 1 µM) 33.5% | viability, T/C (second compound 0.1 µM, first compound 3.16 µM) 27.7% | viability, T/C (second compound 0.1 µM, first compound 10 µM) 5.83% | viability, T/C (second compound 0.316 µM, first compound 0.0316 µM) 128% | viability, T/C (second compound 0.316 µM, first compound 0.1 µM) 71.8% | viability, T/C (second compound 0.316 µM, first compound 0.316 µM) 33.9% | viability, T/C (second compound 0.316 µM, first compound 1 µM) 35.5% | viability, T/C (second compound 0.316 µM, first compound 3.16 µM) 31.4% | viability, T/C (second compound 0.316 µM, first compound 10 µM) 5.81% | viability, T/C (second compound 1 µM, first compound 0.0316 µM) 116% | viability, T/C (second compound 1 µM, first compound 0.1 µM) 72.4% | viability, T/C (second compound 1 µM, first compound 0.316 µM) 30.1% | viability, T/C (second compound 1 µM, first compound 1 µM) 33% | viability, T/C (second compound 1 µM, first compound 3.16 µM) 33.2% | viability, T/C (second compound 1 µM, first compound 10 µM) 5.07% | viability, T/C (second compound 3.16 µM, first compound 0.0316 µM) 128% | viability, T/C (second compound 3.16 µM, first compound 0.1 µM) 73.5% | viability, T/C (second compound 3.16 µM, first compound 0.316 µM) 30.6% | viability, T/C (second compound 3.16 µM, first compound 1 µM) 32.5% | viability, T/C (second compound 3.16 µM, first compound 3.16 µM) 33.3% | viability, T/C (second compound 3.16 µM, first compound 10 µM) 5.29% | viability, T/C (second compound 10 µM, first compound 0.0316 µM) 106% | viability, T/C (second compound 10 µM, first compound 0.1 µM) 47.8% | viability, T/C (second compound 10 µM, first compound 0.316 µM) 33% | viability, T/C (second compound 10 µM, first compound 1 µM) 30.2% | viability, T/C (second compound 10 µM, first compound 3.16 µM) 38.3% | viability, T/C (second compound 10 µM, first compound 10 µM) 0.93%
6.94: pIC50 (second compound 10 µM)
6.63: pIC50 (second compound 0.316 µM)
6.85: pIC50 (second compound 0.0316 µM)
6.74: pIC50 (second compound 0.1 µM)

Reference: PubChem BioAssay AID2060897 (Molecular Pharmacology Branch, DTP, NCI, 2025)
